Assay results: ChEMBL document CHEMBL4017481, “Computer-aided discovery of two novel chalcone-like compounds active and selective against Leishmania infantum” (Bioorg Med Chem Lett, 2017)

Tests used:
Leishmania infantum = experiment: microbe, parasite or virus in culture; format: functional; conditions: MHOM/BR/1972/BH046, 72 h
Description: Anti-leishmanial activity against Leishmania infantum MHOM/BR/1972/BH046 amastigotes infected in cells measured after 3 days by Draq5 staining based assay

[1] = (§1) Cytotoxicity against human THP1 cells measured after 72 hrs by resazurin assay; format: cell-based, THP-1; conditions: THP-1 cells
[2] = (§2) Cytotoxicity against African green monkey Vero cells measured after 72 hrs by resazurin assay; format: cell-based; conditions: chlorocebus sabaeus, Vero cells
in vitro [3] = conditions: human
Description: Selectivity index, ratio of CC50 for human THP1 cells to EC50 for Leishmania infantum MHOM/BR/1972/BH046 amastigotes

in vitro [4] = conditions: monkey, Vero cells
Description: Selectivity index, ratio of CC50 for African green monkey Vero cells to EC50 for Leishmania infantum MHOM/BR/1972/BH046 amastigotes

THP-1 = experiment: as §1; format: cell-based; conditions: thp-1, 72 h
Vero = experiment: as §2; format: cell-based; conditions: chlorocebus sabaeus, vero, 72 h

Row | SMILES | EC50 (Leishmania infantum) | CC50 at 72 h [1] | CC50 at 72 h [2] | selectivity ratio (in vitro [3]; THP-1 cells) | selectivity ratio (in vitro [4]) | CC50 (THP-1) | CC50 (Vero) | selectivity ratio (in vitro [3])
1 | O=C(/C=C/c1ccc([N+](=O)[O-])o1)c1ccc(N2CCOCC2)cc1 |  | 49 µM | > 100 µM |  |  |  |  | 
2 | O=C(/C=C/c1ccc([N+](=O)[O-])cc1)c1ccc(N2CCCCC2)cc1 | > 50 µM |  |  |  |  | > 50 µM |  | 
3 | Cc1ccc(C(=O)/C=C/c2ccc([N+](=O)[O-])s2)cc1 | > 50 µM | 13.5 µM |  |  |  |  |  | 
4 | O=C(/C=C/c1ccc([N+](=O)[O-])o1)c1ccc(C2CCCCC2)cc1 |  | 3.1 to 31.1 µM |  | 2.8 to 2.84 | 9.1 to 10 |  | > 100 µM | 
5 | O=C(/C=C/c1ccc([N+](=O)[O-])o1)c1ccc(I)cc1 |  | 49.5 µM |  | 1.8 to 1.82 | 3.6 |  | > 100 µM | 
6 | O=C(/C=C/c1ccc([N+](=O)[O-])s1)c1ccc(C2CCCCC2)cc1 | > 50 µM | > 50 µM |  |  |  |  |  | 
7 | O=C(/C=C/c1ccc([N+](=O)[O-])s1)c1ccc(N2CCOCC2)cc1 | > 50 µM | 39.9 µM |  |  |  |  |  | 
8 | CC(C)(C)c1ccc(C(=O)/C=C/c2ccco2)cc1 | > 50 µM | > 50 µM |  |  |  |  |  | 
9 | CC(C)(C)c1ccc(C(=O)/C=C/c2ccc([N+](=O)[O-])o2)cc1 | > 50 µM | > 50 µM | > 100 µM |  |  |  |  | 
10 | CSc1ccc(C(=O)/C=C/c2ccc([N+](=O)[O-])s2)cc1 | > 50 µM | 8.56 µM | > 100 µM |  |  |  |  | 
11 | O=C(/C=C/c1ccco1)c1ccc(N2CCCCC2)cc1 | > 50 µM | > 50 µM |  | > 50 |  |  |  | 
12 | CCCCc1ccc(C(=O)/C=C/c2ccc([N+](=O)[O-])s2)cc1 | > 50 µM | 17.1 µM | 81.3 µM |  |  |  |  | 
13 | CCCCc1ccc(C(=O)/C=C/c2ccc([N+](=O)[O-])o2)cc1 | > 50 µM | 48.7 µM | 75.7 µM |  |  |  |  | 
14 | CSc1ccc(C(=O)/C=C/c2ccc([N+](=O)[O-])o2)cc1 | 9.31 µM | 13.1 µM |  | 1.4 to 1.41 | 4.3 |  | 40.7 µM | 

More lines, main results first:

Row | EC50 (Leishmania infantum) | SMILES | CC50 at 72 h [1] | CC50 at 72 h [2] | selectivity ratio (in vitro [3]; THP-1 cells) | selectivity ratio (in vitro [4]) | CC50 (THP-1) | CC50 (Vero) | selectivity ratio (in vitro [3])
15 | 29.1 µM | O=C(/C=C/c1ccc([N+](=O)[O-])o1)c1ccc(Br)cc1 | 13.4 µM | > 100 µM | 0.46 | 3.4 |  |  | 
16 | 6.32 µM | O=C(/C=C/c1ccc([N+](=O)[O-])o1)c1ccc(N2CCCCC2)cc1 |  |  | > 7.91 | 55 | > 50 µM | 349 µM | 
17 | > 50 µM | COc1ccc(/C=C/C(=O)c2cccc(Br)c2)cc1 | > 50 µM | > 100 µM | > 50 |  |  |  | 
18 | > 50 µM | COc1ccc(/C=C/C(=O)c2cccc(I)c2)cc1 |  |  |  | 2 | > 50 µM | > 100 µM | 
19 | > 50 µM | COc1ccc(/C=C/C(=O)c2ccc(-c3ccccc3)cc2)cc1 |  |  |  |  | > 50 µM |  | 
20 | > 50 µM | CN(C)c1ccc(/C=C/C(=O)c2ccc(-c3ccccc3)cc2)cc1 |  |  |  |  | > 50 µM |  | 
21 | 11.8 µM | O=C(/C=C/c1ccc([N+](=O)[O-])o1)c1ccc(N2CCCC2)cc1 | > 50 µM |  | > 4.26 |  |  |  | 
22 | 31.1 µM | CC(C)(C)c1ccc(C(=O)/C=C/c2ccc([N+](=O)[O-])s2)cc1 | 8.4 to 8.49 µM |  | 0.2 to 0.27 | 3 to 3.2 |  | > 100 µM | 
23 | > 50 µM | Cc1cccc(C(=O)/C=C/c2ccc([N+](=O)[O-])o2)c1 | 42.1 µM | 55.1 µM | > 50 |  |  |  | 
24 | 12.4 µM | O=C(/C=C/c1ccc([N+](=O)[O-])o1)c1ccc(-n2ccnc2)cc1 | 22.2 µM | > 100 µM | 1.79 | 8.1 |  |  | 
25 | 9.6 µM | O=C(/C=C/c1ccc([N+](=O)[O-])o1)c1ccc(N2CCNCC2)cc1 |  |  | > 5.2 | 10 to 10.4 | > 50 µM | > 100 µM | 
26 | 37.7 µM | Cc1ccccc1C(=O)/C=C/c1ccc([N+](=O)[O-])o1 | 27.9 µM | 41.3 µM | 0.74 | 1 |  |  | 
27 | 21.4 µM | O=C(/C=C/c1ccc([N+](=O)[O-])o1)c1ccc(-c2ccccc2)cc1 | 50.4 µM | > 100 µM | 2.35 | 4.7 |  |  | 
28 | 31.4 µM | O=C(/C=C/c1ccc([N+](=O)[O-])s1)c1ccc(-n2ccnc2)cc1 | 23.4 µM | 42.7 µM | 0.75 | 1.3 |  |  | 
29 | 45.5 µM | CSc1ccc(C(=O)/C=C/c2ccco2)cc1 | > 50 µM |  | > 1.09 |  |  |  | 
30 | 30.8 µM | O=C(/C=C/c1cccc([N+](=O)[O-])c1)c1ccc(N2CCCCC2)cc1 |  |  | > 1.62 |  | > 50 µM |  | 
31 | 21.4 µM | O=C(/C=C/c1ccc(Cl)s1)c1ccc(-n2ccnc2)cc1 | > 50 µM |  | > 2.33 |  |  |  | 
32 | 23.8 µM | O=C(/C=C/c1ccc([N+](=O)[O-])o1)c1cccc(Br)c1 |  |  | 0.6 to 0.63 | 2.8 to 2.9 | 14.9 µM | 68.8 µM | 
33 | 1.92 µM | C[C@@H]1[C@H](O)[C@@H](C)/C=C/C=C/C=C/C=C/C=C/C=C/C=C/[C@H](O[C@@H]2O[C@H](C)[C@@H](O)[C@H](N)[C@@H]2O)C[C@@H]2O[C@](O)(C[C@@H](O)C[C@@H](O)[C@H](O)CC[C@@H](O)C[C@@H](O)CC(=O)O[C@H]1C)C[C@H](O)[C@H]2C(=O)O [AMPHOTERICIN B] | > 50 µM |  |  |  |  |  | > 26
